In US10316017B2, “COT modulators and methods of use thereof” (Gilead Sciences, Inc., priority 2015, dated 2019):

Columns and labels:
[1] = molecular target: T1, human Cot catalytic domain (30-397 amino acids) (Homo sapiens, UniProt P41279); test: High Throughput Cot Biochemical Assay (KinEASE TR-FRET); settings: Cot biochemical HTRF (KinEASE TR-FRET) assay; read-out: IC50 HTRF
T1 construct: Purified recombinant human Cot catalytic domain (30-397 amino acids) was purchased from Cama Biosciences; purchased Cama Biosciences (so in the source)
T1 sequence (P41279 30-397): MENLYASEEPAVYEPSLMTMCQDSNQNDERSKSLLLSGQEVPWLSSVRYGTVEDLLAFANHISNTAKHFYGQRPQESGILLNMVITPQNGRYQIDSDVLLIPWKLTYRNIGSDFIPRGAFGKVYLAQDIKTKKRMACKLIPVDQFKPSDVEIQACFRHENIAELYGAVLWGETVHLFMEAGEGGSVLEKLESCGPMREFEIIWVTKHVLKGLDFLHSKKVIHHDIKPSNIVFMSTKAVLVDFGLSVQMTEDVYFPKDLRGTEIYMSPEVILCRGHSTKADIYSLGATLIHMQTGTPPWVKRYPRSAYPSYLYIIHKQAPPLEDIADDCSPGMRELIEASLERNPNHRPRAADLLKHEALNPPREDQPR
Summary of the method: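 TR-FRET (KinEASE) read-out: Eu-labelled phospho-specific antibody binds XL665-tagged STK3 peptide (1 μM) phosphorylated by 5 nM human Cot kinase domain (residues 30-397). Reaction at 400 μM ATP, pH 7.0 MOPS buffer with 10 mM MgOAc, 1 mM DTT and 0.1% DMSO.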

[2] = tested on: TNFα production in LPS-stimulated human monocytes; test: Cot Monocyte TNFα Cell Based Assay; settings: Homo sapiens, Monocyte, TNFα in LPS-stimulated human monocytes; read-out: EC50 TNF
Summary of the method: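 TNFα release quantified by two-antibody TR-FRET, normalised to unstimulated (0%) and LPS-stimulated (100%) wells. Cells got a 1 h compound exposure at 37° C in 0.5% DMSO before 4 h challenge with 50 pg/ml LPS, at 5,000 cells/well.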

CC(C)(C)C(O)c1cccc([C@H](Nc2cc(Cl)c3ncc(C#N)c(Nc4ccc(F)c(Cl)c4)c3c2)c2cn(C3CCN(C(C)(C)C)CC3)nn2)c1 (stereo partly drawn) [Example 672, 6-(((1S)-(1-(1-(tert-butyl)piperidin-4-yl)-1H-1,2,3-triazol-4-yl)(3-(1-hydroxy-2,2-dimethylpropyl)phenyl)methyl)amino)-8-chloro-4-((3-chloro-4-fluorophenyl)amino)quinoline-3-carbonitrile]
IC50 [1]: 32 nM | EC50 [2]: 889 nM

CC(C)(C)N1CCC(n2cc([C@@H](Nc3cc(Cl)c4ncc(C#N)c(Nc5ccc(F)c(Cl)c5)c4c3)c3cccc(C(N)=O)c3)nn2)CC1 [Example 673, (S)-3-((1-(1-(tert-butyl)piperidin-4-yl)-1H-1,2,3-triazol-4-yl)((8-chloro-4-((3-chloro-4-fluorophenyl)amino)-3-cyanoquinolin-6-yl)amino)methyl)benzamide]
IC50 [1]: 2 nM | EC50 [2]: 1550 nM

CCN(C)C(=O)c1cccc([C@H](Nc2cc(Cl)c3ncc(C#N)c(Nc4ccc(F)c(Cl)c4)c3c2)c2cn(C3CCN(C(C)(C)C)CC3)nn2)c1 [Example 674, (S)-3-((1-(1-(tert-butyl)piperidin-4-yl)-1H-1,2,3-triazol-4-yl)((8-chloro-4-((3-chloro-4-fluorophenyl)amino)-3-cyanoquinolin-6-yl)amino)methyl)-N-ethyl-N-methylbenzamide]
IC50 [1]: 3 nM | EC50 [2]: 318 nM

CC(C)(C)N1CCC(n2cc([C@@H](Nc3cc(Cl)c4ncc(C#N)c(Nc5ccc(F)c(Cl)c5)c4c3)c3cccc(C(=O)N4CCC4)c3)nn2)CC1 [Example 675, (S)-6-(((3-(azetidine-1-carbonyl)phenyl)(1-(1-(tert-butyl)piperidin-4-yl)-1H-1,2,3-triazol-4-yl)methyl)amino)-8-chloro-4-((3-chloro-4-fluorophenyl)amino)quinoline-3-carbonitrile]
IC50 [1]: 1 nM | EC50 [2]: 81 nM

CC(C)(C)N1CCC(n2cc([C@@H](Nc3cc(Cl)c4ncc(C#N)c(Nc5ccc(F)c(Cl)c5)c4c3)c3cccc(C(=O)N4CCCCC4)c3)nn2)CC1 [Example 676, (S)-6-(((1-(1-(tert-butyl)piperidin-4-yl)-1H-1,2,3-triazol-4-yl)(3-(piperidine-1-carbonyl)phenyl)methyl)amino)-8-chloro-4-((3-chloro-4-fluorophenyl)amino)quinoline-3-carbonitrile]
IC50 [1]: 6 nM | EC50 [2]: 434 nM

CC[C@@H](Nc1c(C#N)cnc2c(Cl)cc(N[C@@H](c3ccc(Cl)cc3)c3cn(C4CCN(C(C)(C)C)CC4)nn3)cc12)c1ccccc1 [Example 677, 6-(((S)-(1-(1-(tert-butyl)piperidin-4-yl)-1H-1,2,3-triazol-4-yl)(4-chlorophenyl)methyl)amino)-8-chloro-4-(((R)-1-phenylpropyl)amino)quinoline-3-carbonitrile]
IC50 [1]: 10 nM | EC50 [2]: 809 nM

Cc1ccc(CNc2c(C#N)cnc3c(Cl)cc(N[C@@H](c4ccc(Cl)cc4)c4cn(C5CCN(C(C)(C)C)CC5)nn4)cc23)cc1 [Example 678, (S)-6-(((1-(1-(tert-butyl)piperidin-4-yl)-1H-1,2,3-triazol-4-yl)(4-chlorophenyl)methyl)amino)-8-chloro-4-((4-methylbenzyl)amino)quinoline-3-carbonitrile]
IC50 [1]: 1430 nM | EC50 [2]: 5690 nM

Cc1cccc(CNc2c(C#N)cnc3c(Cl)cc(N[C@@H](c4ccc(Cl)cc4)c4cn(C5CCN(C(C)(C)C)CC5)nn4)cc23)c1 [Example 679, (S)-6-(((1-(1-(tert-butyl)piperidin-4-yl)-1H-1,2,3-triazol-4-yl)(4-chlorophenyl)methyl)amino)-8-chloro-4-((3-methylbenzyl)amino)quinoline-3-carbonitrile]
IC50 [1]: 355 nM | EC50 [2]: 12500 nM

Cc1ccccc1CNc1c(C#N)cnc2c(Cl)cc(N[C@@H](c3ccc(Cl)cc3)c3cn(C4CCN(C(C)(C)C)CC4)nn3)cc12 [Example 680, (S)-6-(((1-(1-(tert-butyl)piperidin-4-yl)-1H-1,2,3-triazol-4-yl)(4-chlorophenyl)methyl)amino)-8-chloro-4-((2-methylbenzyl)amino)quinoline-3-carbonitrile]
IC50 [1]: 44 nM | EC50 [2]: 6750 nM

CC(C)(C)N1CCC(n2cc([C@@H](Nc3cc(Cl)c4ncc(C#N)c(NCCCc5ccccc5)c4c3)c3ccc(Cl)cc3)nn2)CC1 [Example 681, (S)-6-(((1-(1-(tert-butyl)piperidin-4-yl)-1H-1,2,3-triazol-4-yl)(4-chlorophenyl)methyl)amino)-8-chloro-4-((3-phenylpropyl)amino)quinoline-3-carbonitrile]
IC50 [1]: 434 nM | EC50 [2]: 12800 nM

CC(C)Nc1c(C#N)cnc2c(Cl)cc(N[C@@H](c3ccc(Cl)cc3)c3cn(C4CCN(C(C)(C)C)CC4)nn3)cc12 [Example 682, (S)-6-(((1-(1-(tert-butyl)piperidin-4-yl)-1H-1,2,3-triazol-4-yl)(4-chlorophenyl)methyl)amino)-8-chloro-4-(isopropylamino)quinoline-3-carbonitrile]
IC50 [1]: 599 nM | EC50 [2]: 15700 nM

CCCCNc1c(C#N)cnc2c(Cl)cc(N[C@@H](c3ccc(Cl)cc3)c3cn(C4CCN(C(C)(C)C)CC4)nn3)cc12 [Example 683, (S)-6-(((1-(1-(tert-butyl)piperidin-4-yl)-1H-1,2,3-triazol-4-yl)(4-chlorophenyl)methyl)amino)-4-(butylamino)-8-chloroquinoline-3-carbonitrile]
IC50 [1]: 165 nM | EC50 [2]: 7250 nM

CN(C)Cc1ccc(Nc2c(C#N)cnc3c(Cl)cc(N[C@@H](c4ccc(Cl)cc4)c4cn(C5CCN(C(C)(C)C)CC5)nn4)cc23)cc1 [Example 684, (S)-6-(((1-(1-(tert-butyl)piperidin-4-yl)-1H-1,2,3-triazol-4-yl)(4-chlorophenyl)methyl)amino)-8-chloro-4-((4-((dimethylamino)methyl)phenyl)amino)quinoline-3-carbonitrile]
IC50 [1]: 7350 nM | EC50 [2]: 6040 nM

N#Cc1cnc2c(Cl)cc(N[C@@H](c3ccccc3)c3cn([C@@H]4CCNC[C@@H]4F)nn3)cc2c1Nc1ccc(F)c(Cl)c1 [Example 685, 8-chloro-4-((3-chloro-4-fluorophenyl)amino)-6-(((S)-(1-((3S,4R)-3-fluoropiperidin-4-yl)-1H-1,2,3-triazol-4-yl)(phenyl)methyl)amino) quinoline-3-carbonitrile]
IC50 [1]: 16 nM | EC50 [2]: 359 nM

CC(C)(C)N1CCC(n2cc([C@@H](Nc3cc(Cl)c4ncc(C#N)c(Nc5ccc6c(cnn6Cc6ccccc6)c5)c4c3)c3ccc(Cl)cc3)nn2)CC1 [Example 686, (S)-4-((1-benzyl-1H-indazol-5-yl)amino)-6-(((1-(1-(tert-butyl)piperidin-4-yl)-1H-1,2,3-triazol-4-yl)(4-chlorophenyl)methyl)amino)-8-chloroquinoline-3-carbonitrile]
IC50 [1]: 7240 nM | EC50 [2]: 5900 nM

Cc1c(Cl)cccc1Nc1c(C#N)cnc2c(Cl)cc(N[C@@H](c3ccc(Cl)cc3)c3cn(C4CCN(C(C)(C)C)CC4)nn3)cc12 [Example 687, (S)-6-(((1-(1-(tert-butyl)piperidin-4-yl)-1H-1,2,3-triazol-4-yl)(4-chlorophenyl)methyl)amino)-8-chloro-4-((3-chloro-2-methylphenyl)amino)quinoline-3-carbonitrile]
IC50 [1]: 40 nM | EC50 [2]: 2830 nM

N#Cc1cnc2c(Cl)cc(N[C@@H](c3ccc(Cl)cc3)c3c[nH]nn3)cc2c1Nc1ccc(Cl)c(Cl)c1 [Example 688, (S)-8-chloro-6-(((4-chlorophenyl)(1H-1,2,3-triazol-4-yl)methyl)amino)-4-((3,4-dichlorophenyl)amino)quinoline-3-carbonitrile]
IC50 [1]: 621 nM | EC50 [2]: 1250 nM

CC(C)(C)N1CCC(n2cc([C@@H](Nc3cc(C#N)c4ncc(C#N)c(Nc5ccc(F)c(Cl)c5)c4c3)c3ccc(Cl)cc3)nn2)CC1 [Example 689, (S)-6-(((1-(1-(tert-butyl)piperidin-4-yl)-1H-1,2,3-triazol-4-yl)(4-chlorophenyl)methyl)amino)-4-((3-chloro-4-fluorophenyl)amino)quinoline-3,8-dicarbonitrile]
IC50 [1]: 11 nM | EC50 [2]: 343 nM

CNC(=O)c1cccc([C@H](Nc2cc(Cl)c3ncc(C#N)c(Nc4ccc(F)c(Cl)c4)c3c2)c2cn(C3CCN(C(C)(C)C)CC3)nn2)c1 [Example 690, (S)-3-((1-(1-(tert-butyl)piperidin-4-yl)-1H-1,2,3-triazol-4-yl)((8-chloro-4-((3-chloro-4-fluorophenyl)amino)-3-cyanoquinolin-6-yl)amino)methyl)-N-methylbenzamide]
IC50 [1]: 2 nM | EC50 [2]: 317 nM

CC(C)(C)N1CCC(n2cc([C@@H](Nc3cc(Cl)c4ncc(C#N)c(Nc5ccc(F)c(Cl)c5)c4c3)c3cccc(C(=O)N4CCCC4)c3)nn2)CC1 [Example 691, (S)-6-(((1-(1-(tert-butyl)piperidin-4-yl)-1H-1,2,3-triazol-4-yl)(3-(pyrrolidine-1-carbonyl)phenyl)methyl)amino)-8-chloro-4-((3-chloro-4-fluorophenyl)amino)quinoline-3-carbonitrile]
IC50 [1]: 2 nM | EC50 [2]: 90 nM

CC(C)(C)N1CCC(n2cc([C@@H](Nc3cc(Cl)c4ncc(C#N)c(Nc5cncc(Cl)c5)c4c3)c3ccc(Cl)cc3)nn2)CC1 [Example 692, (S)-6-(((1-(1-(tert-butyl)piperidin-4-yl)-1H-1,2,3-triazol-4-yl)(4-chlorophenyl)methyl)amino)-8-chloro-4-((5-chloropyridin-3-yl)amino)quinoline-3-carbonitrile]
IC50 [1]: 51 nM | EC50 [2]: 797 nM
